Test results taken from ChEMBL document CHEMBL1201862, “PubChem BioAssay data set” (2004).
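Compound exposure: 48 hours, 5 concentrations, 96-well plates. The concentration for 50% growth inhibition is given as GI50.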 Activity calls are given as the source filed them. No stated cut-off is given here; in the data, active = GI50 up to about 1.1 µM and inactive = higher.

Tests used:
Test in all cases: NCI tumour cell line growth inhibition, 48 h
OVCAR-5 = tested on: OVCAR-5
CAKI-1 = tested on: CAKI-1
SNB-75 = tested on: SNB-75
SF-295 = tested on: SF-295
HT-29 = tested on: HT-29
A549 = tested on: A549
MOLT-4 = tested on: MOLT-4
HL-60 = tested on: HL-60
SK-MEL-2 = tested on: SK-MEL-2
UACC-257 = tested on: UACC-257
LOX IMVI = tested on: LOX IMVI
A498 = tested on: A498
SW-620 = tested on: SW-620
IGROV-1 = tested on: IGROV-1
RXF 631 = tested on: RXF 631
NCI-H460 = tested on: NCI-H460
OVCAR-8 = tested on: OVCAR-8
UACC-62 = tested on: UACC-62
XF498 = tested on: XF498
RPMI-8226 = tested on: RPMI-8226
SF-268 = tested on: SF-268
COLO 205 = tested on: COLO 205
LXFL 529 = tested on: LXFL 529
SNB-78 = tested on: SNB-78
SN12C = tested on: SN12C
SK-OV-3 = tested on: SK-OV-3
HOP-62 = tested on: HOP-62
KM12 = tested on: KM12
MCF7 = tested on: MCF7
M14 = tested on: M14
HCT-116 = tested on: HCT-116
DMS-114 = tested on: DMS-114
Malme-3M = tested on: Malme-3M
OVCAR-3 = tested on: OVCAR-3
SK-MEL-28 = tested on: SK-MEL-28
HCC 2998 = tested on: HCC 2998
NCI/ADR-RES = tested on: NCI/ADR-RES
DMS-273 = tested on: DMS-273
OVCAR-4 = tested on: OVCAR-4
SNB-19 = tested on: SNB-19
HCT-15 = tested on: HCT-15
U-251 = tested on: U-251
HOP-92 = tested on: HOP-92
UO-31 = tested on: UO-31
K562 = tested on: K562
NCI-H226 = tested on: NCI-H226
SR = tested on: SR
EKVX = tested on: EKVX
M19-MEL = tested on: M19-MEL
RXF 393 = tested on: RXF 393
KM-20L2 = tested on: KM-20L2
NCI-H23 = tested on: NCI-H23
786-0 = tested on: 786-0
NCI-H522 = tested on: NCI-H522
CCRF-CEM = tested on: CCRF-CEM
SF-539 = tested on: SF-539
HOP-18 = tested on: HOP-18
DLD-1 = tested on: DLD-1
SK-MEL-5 = tested on: SK-MEL-5

Measured: GI50

CNC(=O)OCc1nc(SC2CCCCO2)n(C)c1COC(=O)NC (centres undefined)
inactive: OVCAR-5 > 100 µM | CAKI-1 > 100 µM | SNB-75 > 100 µM | SF-295 > 100 µM | HT-29 > 100 µM | A549 > 100 µM | MOLT-4 > 100 µM | HL-60 > 100 µM | SK-MEL-2 > 100 µM | UACC-257 > 100 µM | LOX IMVI > 100 µM | A498 > 100 µM | SW-620 > 100 µM | IGROV-1 > 100 µM | RXF 631 > 100 µM | NCI-H460 > 100 µM | OVCAR-8 > 100 µM | UACC-62 > 100 µM | XF498 > 100 µM | RPMI-8226 > 100 µM | SF-268 > 100 µM | COLO 205 > 100 µM | LXFL 529 > 100 µM | SNB-78 > 100 µM | SN12C > 100 µM | SK-OV-3 > 100 µM | HOP-62 > 100 µM | KM12 > 100 µM | MCF7 > 100 µM | M14 > 100 µM | HCT-116 > 100 µM | DMS-114 > 100 µM | Malme-3M > 100 µM | OVCAR-3 > 100 µM | SK-MEL-28 > 100 µM | HCC 2998 > 100 µM | NCI/ADR-RES > 100 µM | DMS-273 > 100 µM | OVCAR-4 > 100 µM | SNB-19 > 100 µM | U-251 > 100 µM | HOP-92 > 100 µM | UO-31 > 100 µM | K562 > 100 µM | NCI-H226 > 100 µM | SR > 100 µM | EKVX > 100 µM | M19-MEL > 100 µM | RXF 393 > 100 µM | KM-20L2 > 100 µM | NCI-H23 > 100 µM | 786-0 > 100 µM | NCI-H522 > 100 µM | CCRF-CEM > 100 µM | SF-539 > 100 µM | HOP-18 > 100 µM | DLD-1 > 100 µM | SK-MEL-5 > 100 µM
> 100 µM: HCT-15
